Laboratory results taken from patent US11325929B2 (VivaVisionShanghaiLtd, priority 2017, dated 2022).

test system: human T lymphocyte strain Jurkat (ATCC TIB-152) adhesion to ICAM-1; assay: T-cell adhesion assay (Jurkat cells on ICAM-1 coated plates); type: cell-based; conditions: Homo sapiens; BCECF-AM labelled Jurkat cells, ICAM-1 coated plate, fluorescence readout; read-out: EC50 of cell adhesion and inhibition
Procedure: Cell Adhesion Inhibition Experiments:
T-cell adhesion assay was performed using human T lymphocyte strain Jurkat (ATCC TIB-152): goat Anti-Human IgG (Fc specific) (Sigma 18885) was diluted to 10 μg/ml in PBS, incubated 100 μL per well/96 well plate at 4° C. for 12 hours. Liquid in the well plate was poured off, blocked with 200 μL of 1% BSA at 37° C. for 90 minutes, and washed three times with PBS. 50 μL of 1 μg/mL ICAM-1 (containing 0.1% BSA, 0.01% Tween 20) was added to each well and incubated at 37° C. for 3 hours. The plate was washed 3 times with assay buffer (20 mM HEPES pH 7.6, 140 mM NaCl, 1 mM MgCl2, 1 mM MnCl2, 0.2% glucose).
The Jurkat […] was centrifuged at 100-G, and cells were resuspended in an assay buffer (20 mM HEPES pH 7.6, 140 mM NaCl, 1 mM MgCl2, 1 mM MnCl2, 0.2% glucose) at 37° C.
2 μl of 1 mM of BCECF-AM per mL of the cell suspension was added. Incubated at 37° C. for 30 minutes, stirred up every 10 minutes during the incubation. After the incubation, the cells were washed with assay buffer at 37° C. The cells were suspended to a concentration of 6×10^6/mL.
The inhibitor was diluted to a final concentration of 2× in assay buffer, and 50 μL of the compound solution and […] of Jurkat cells were mixed at room temperature, and incubated at 37° C. for 30 minutes. 100 μL/well of cells and inhibitors were added to the plate and incubated for 1 hour at room temperature. The total fluorescence was measured by a fluorometer: ex: 485; em: 530; cutoff: 530 to measure the total fluorescence. The plate was washed once with the assay buffer and the fluorescence was measured with a fluorometer: ex: 485; em: 530; cutoff. The results are plotted as inhibition-concentration plots and EC50 is calculated using standard methods.

Question: `CP(=O)(CCc1cc(Cl)c(C(=O)N[C@@H](CN/C(=N\C#N)N2CC[C@@H](O)C2)C(=O)O)c(Cl)c1)c1cccc(O)c1` (stereo partly drawn) [Example 19, (2s)-3-((R)—N′-cyano-3-hydroxytetrahydropyrrol-1-formamidino)-2-(2,6-dichloro-4-(2-(methyl(3-hydroxyphenyl)phosphoryl)ethyl)benzamido)propionic Acid] was tested. Which EC50 did it give?
Answer: The EC50 was 230 nM.

Question: For `CCP(=O)(CCc1cc(Cl)c(C(=O)N[C@@H](Cc2cccc(S(C)(=O)=O)c2)C(=O)O)c(Cl)c1)c1cccc(O)c1` (stereo partly shown) [Example 21], which EC50 is on record?
Answer: The EC50 was 7.3 nM.

Question: Which EC50 does the source give for `CS(=O)(=O)c1cccc(C[C@H](NC(=O)c2c(Cl)cc(CCP(=O)(c3cccc(O)c3)C3CC3)cc2Cl)C(=O)O)c1` (stereo partly shown) [Example 22] here?
Answer: The EC50 was 22 nM.

Question: `CCCCP(=O)(CCc1cc(Cl)c(C(=O)N[C@@H](Cc2cccc(S(C)(=O)=O)c2)C(=O)O)c(Cl)c1)c1cccc(O)c1` (stereo partly shown) [Example 23] was tested. Which EC50 did it give?
Answer: The EC50 was 61 nM.

Question: Which EC50 does the source give for `CP(=O)(CCc1cc(Cl)c(C(=O)N[C@@H](Cc2cccc(S(C)(=O)=O)c2)C(=O)O)c(Cl)c1)c1ccc2ccoc2c1` (stereo partly shown) [Example 25] here?
Answer: Its EC50 is 63 nM.

Question: With `CP(=O)(CCc1cc(Cl)c(C(=O)N[C@@H](Cc2cccc(S(C)(=O)=O)c2)C(=O)O)c(Cl)c1)c1cc2ccccc2o1` (stereo partly shown) [Example 26] as the molecule, how does the EC50 read?
Answer: The EC50 was 23 nM.

Question: `C[P@](=O)(CCc1cc(Cl)c(C(=O)N[C@@H](Cc2cccc(S(C)(=O)=O)c2)C(=O)O)c(Cl)c1)c1cccc(O)c1` [Example 30] was tested. Which EC50 did it give?
Answer: Its EC50 is 7.2 nM.

Question: `C[P@@](=O)(CCc1cc(Cl)c(C(=O)N[C@@H](Cc2cccc(S(C)(=O)=O)c2)C(=O)O)c(Cl)c1)c1cccc(O)c1` [Example 31] was tested. Which EC50 did it give?
Answer: Its EC50 is 7.1 nM.

Question: `CCOP(=O)(/C=C/c1cc(Cl)c(C(=O)N[C@@H](Cc2cccc(S(C)(=O)=O)c2)C(=O)O)c(Cl)c1)c1cccc(O)c1` (stereo partly drawn) [Example 32, (S,E)-2-(4-(2-(3-hydroxyphenyl)phosphonovinyl)-2,6-dichlorobenzamide)-3-(3-(methylsulfonyl)phenyl)propionic Acid] was tested. Which EC50 did it give?
Answer: Its EC50 is 3.7 nM.

Question: For `CP(=O)(CCc1cc(Cl)c(C(=O)N[C@@H](Cc2cccc(S(C)(=O)=O)c2)C(=O)O)c(Cl)c1)c1ccc(O)cc1` (stereo partly shown) [Example 33], which EC50 is on record?
Answer: The EC50 was 10.8 nM.

Question: For `CP(=O)(CCc1cc(Cl)c(C(=O)N[C@@H](CNC(=O)c2cccc(O)c2)C(=O)O)c(Cl)c1)c1cccc(O)c1` (stereo partly shown) [Example 34, (2s)-2-(2,6-dichloro-4-(2-(methyl(3-hydroxyphenyl)phosphoryl)ethyl)benzamido)-3-(3-hydroxybenzamido)propionic Acid], which EC50 is on record?
Answer: The EC50 was 12.5 nM.

Question: For `CP(=O)(CCc1cc(Cl)c(C(=O)N[C@@H](CNC(=O)c2cc(O)cc(O)c2)C(=O)O)c(Cl)c1)c1cccc(O)c1` (stereo partly shown) [Example 35, (2s)-2-(2,6-dichloro-4-(2-(methyl(3-hydroxyphenyl)phosphoryl)ethyl)benzamido)-3-(3,5-dihydroxybenzamido)propionic Acid], which EC50 is on record?
Answer: Its EC50 is 3.8 nM.

Question: For `CP(=O)(CCc1cc(Cl)c(C(=O)N[C@@H](CCCCNS(C)(=O)=O)C(=O)O)c(Cl)c1)c1cccc(O)c1` (stereo partly shown) [Example 37], which EC50 is on record?
Answer: The EC50 was over 1000 nM.

Question: For `CP(=O)(CCc1cc(Cl)c(C(=O)N[C@@H](Cc2cncc(S(C)(=O)=O)c2)C(=O)O)c(Cl)c1)c1cccc(O)c1` (stereo partly shown) [Example 38], which EC50 is on record?
Answer: Its EC50 is 24 nM.

Question: How did the EC50 turn out when `CP(=O)(CCc1cc(Cl)c(C(=O)N[C@@H](CC2CCN(S(C)(=O)=O)C2)C(=O)O)c(Cl)c1)c1cccc(O)c1` (stereo partly shown) [Example 42] was run?
Answer: Its EC50 is 150 nM.

Question: Which EC50 does the source give for `CP(=O)(CCc1cc(Cl)c(C(=O)N[C@@H](CN/C(=N\C#N)N2C[C@@H](O)[C@H](O)C2)C(=O)O)c(Cl)c1)c1cccc(O)c1` (stereo partly drawn) [Example 45, (2s)-3-((trans)-N′-cyano-3,4-dihydroxypyrrolidine-1-formamidino)-2-(2,6-dichloro-4-(2-(methyl(3-hydroxyphenyl)phosphoryl)ethyl)benzamido)propionic Acid] here?
Answer: Its EC50 is over 1000 nM.

Question: With `CP(=O)(CCc1cc(Cl)c(C(=O)N[C@@H](CN/C(=N\C#N)N(CCO)CCO)C(=O)O)c(Cl)c1)c1cccc(O)c1` (stereo partly shown) [Example 46, (2s)-3-(2-cyano-3,3-bis(2-hydroxyethyl)guanidino)-2-(2,6-dichloro-4-(2-(methyl(3-hydroxyphenyl)phosphoryl)ethyl)benzamido)propionic Acid] as the molecule, how does the EC50 read?
Answer: The EC50 was over 1000 nM.

Question: With `COP(=O)(C#Cc1cc(Cl)c(C(=O)N[C@@H](Cc2cccc(S(C)(=O)=O)c2)C(=O)O)c(Cl)c1)c1ccccc1O` (stereo partly shown) [Example 47] as the molecule, how does the EC50 read?
Answer: The EC50 was 340 nM.

Question: For `CP(=O)(C#Cc1cc(Cl)c(C(=O)N[C@@H](Cc2cccc(S(C)(=O)=O)c2)C(=O)O)c(Cl)c1)c1ccc(O)c(Cl)c1` (stereo partly shown) [Example 48], which EC50 is on record?
Answer: Its EC50 is 6.8 nM.

Question: With `CS(=O)(=O)c1cccc(C[C@H](NC(=O)c2c(Cl)cc(C#CP(=O)(O)c3ccc4ccoc4c3)cc2Cl)C(=O)O)c1` [Example 49] as the molecule, how does the EC50 read?
Answer: Its EC50 is 10.8 nM.

Question: `CS(=O)(=O)c1cccc(C[C@H](NC(=O)c2c(Cl)cc(C(O)CP(=O)(O)c3cccc(O)c3)cc2Cl)C(=O)O)c1` (stereo partly shown) [Example 50, (2s)-2-(2,6-dichloro-4-(1-hydroxy 2-(hydroxy(3-hydroxyphenyl)phosphoryl)ethyl)benzamido)-3-(3-(methylsulfonyl)phenyl)propionic Acid] was tested. Which EC50 did it give?
Answer: The EC50 was 16 nM.

Question: For `CS(=O)(=O)c1cccc(C[C@H](NC(=O)c2c(Cl)cc(/C=C/P(=O)(O)c3cccc(O)c3)cc2Cl)C(=O)O)c1` [Example 51, (2s)-2-(2,6-dichloro-4-(2-(hydroxy(m-hydroxyphenyl)phosphoryl)vinyl)benzamido)-3-(3-(methylsulfonyl)phenyl)propionic Acid], which EC50 is on record?
Answer: The EC50 was 4.2 nM.

Question: `CS(=O)(=O)c1cccc(C[C@H](NC(=O)c2c(Cl)cc(/C=C/P(=O)(c3cccc(O)c3)c3cccc(O)c3)cc2Cl)C(=O)O)c1` [Example 52, (S,E)-2-(4-(2-(bis(3-hydroxyphenyl)phosphonyl)vinyl)-2,6-dichlorobenzamido)-3-(3-(methylsulfonyl)phenyl)propionic Acid] was tested. Which EC50 did it give?
Answer: Its EC50 is 74 nM.

Question: Which EC50 does the source give for `CS(=O)(=O)c1cccc(C[C@H](NC(=O)c2c(Cl)cc(CCP(=O)(c3cccc(O)c3)c3cccc(O)c3)cc2Cl)C(=O)O)c1` [Example 53, (S,E)-2-(4-(2-(bis(3-hydroxyphenyl)phosphonyl)ethyl)-2,6-dichlorobenzamido)-3-(3-(methylsulfonyl)phenyl)propionic Acid] here?
Answer: The EC50 was 22 nM.

Question: With `CCOP(=O)(/C=C/c1cc(Cl)c(C(=O)N[C@@H](Cc2cccc(S(C)(=O)=O)c2)C(=O)O)c(Cl)c1)c1ccc(O)cc1` (stereo partly shown) [Example 54] as the molecule, how does the EC50 read?
Answer: The EC50 was 9.6 nM.

Question: `CC(C)P(=O)(CCc1cc(Cl)c(C(=O)N[C@@H](Cc2cccc(S(C)(=O)=O)c2)C(=O)O)c(Cl)c1)c1cccc(O)c1` (stereo partly shown) [Example 56] was tested. Which EC50 did it give?
Answer: The EC50 was 63 nM.

Question: How did the EC50 turn out when `CS(=O)(=O)c1cccc(C[C@H](NC(=O)c2c(Cl)cc(/C=C/P(=O)(c3cccc(O)c3)C3CC3)cc2Cl)C(=O)O)c1` (stereo partly shown) [Example 57] was run?
Answer: The EC50 was 5.3 nM.

Question: How did the EC50 turn out when `CP(=O)(/C=C/c1cc(Cl)c(C(=O)N[C@@H](Cc2cccc(S(C)(=O)=O)c2)C(=O)O)c(Cl)c1)c1cccc(O)c1` (stereo partly shown) [Example 58] was run?
Answer: The EC50 was 1.9 nM.
